From patent publication US8022102B2, “Unsaturated tetracyclic tetrahydrofuran derivatives” (Janssen Pharmaceutica, NV, priority 2004, dated 2011)
Read-outs that look alike come from different tables or passages of the source.

Legend:
[1] = molecular target: T1, human cloned 5-HT2A receptor (Homo sapiens, UniProt P28223); assay: In vitro binding affinity for 5-HT2A receptor (radioligand binding); settings: human cloned 5-HT2A receptor, radioligand binding
T1 construct: expressed in transfected cells; host or cells: L929 cells
Description: During the incubation, the radioligands bind to the receptor. When equilibrium of binding is reached, the receptor bound radioactivity is separated from the non-bound radioactivity, and the receptor bound activity is counted. The interaction of the test compounds with the receptors is assessed in competition binding experiments. Various concentrations of the test compound are added to the incubation mixture containing the tissue preparation and the radioligand. Binding of the radioligand will be inhibited by the test compound in proportion to its binding affinity and its concentration. The affinities of the compounds for the 5-HT2 receptors were measured by means of radioligand binding studies conducted with: (a) human cloned 5-HT2A receptor, expressed in L929 cells using [^125I]R91150 as radioligand and (b) human cloned 5-HT2C receptor, expressed in CHO cells using [^3H]mesulergine as radioligand.

[2] = molecular target: T2, human Dopamine D2L receptor (Homo sapiens, UniProt P14416); assay: In vitro binding affinity for human D2L receptor ([3H]Spiperone); settings: human D2L receptor-transfected CHO cell membranes, [3H]Spiperone; read-out: h-D2L (converted)
T2 construct: expressed in transfected cells; host or cells: CHO cells
Description: Frozen membranes of human Dopamine D2L receptor-transfected CHO cells were thawed, briefly homogenised using an Ultra-Turrax T25 homogeniser and diluted in Tris-HCl assay buffer containing NaCl, CaCl2, MgCl2, KCl (50, 120, 2, 1, and 5 mM respectively, adjusted to pH 7.7 with HCl) to an appropriate protein concentration optimised for specific and non-specific binding. Radioligand [^3H]Spiperone (NEN, specific activity ˜70 Ci/mmol) was diluted in assay buffer at a concentration of 2 nmol/L. Prepared radioligand (50 μl), along with 50 μl of either the 10% DMSO control, Butaclamol (10^−6 mol/l final concentration), or compound of interest, was then incubated (30 min, 37° C.) with 400 μl of the prepared membrane solution. Membrane-bound activity was filtered through a Packard Filtermate harvester onto GF/B Unifilterplates and washed with ice-cold Tris-HCl buffer (50 mM; pH 7.7; 6×0.5 ml). Filters were allowed to dry before adding scintillation fluid and counting in a Topcount scintillation counter. Percentage specific bound and competition binding curves were calculated using S-Plus software (Insightful).

[3] = molecular target: T3, human cloned 5-HT2C receptor (Homo sapiens, UniProt P28335); assay: In vitro binding affinity for 5-HT2C receptor (radioligand binding); settings: human cloned 5-HT2C receptor, radioligand binding
T3 construct: expressed in transfected cells; host or cells: CHO cells
T3 sequence (P28335 33-458): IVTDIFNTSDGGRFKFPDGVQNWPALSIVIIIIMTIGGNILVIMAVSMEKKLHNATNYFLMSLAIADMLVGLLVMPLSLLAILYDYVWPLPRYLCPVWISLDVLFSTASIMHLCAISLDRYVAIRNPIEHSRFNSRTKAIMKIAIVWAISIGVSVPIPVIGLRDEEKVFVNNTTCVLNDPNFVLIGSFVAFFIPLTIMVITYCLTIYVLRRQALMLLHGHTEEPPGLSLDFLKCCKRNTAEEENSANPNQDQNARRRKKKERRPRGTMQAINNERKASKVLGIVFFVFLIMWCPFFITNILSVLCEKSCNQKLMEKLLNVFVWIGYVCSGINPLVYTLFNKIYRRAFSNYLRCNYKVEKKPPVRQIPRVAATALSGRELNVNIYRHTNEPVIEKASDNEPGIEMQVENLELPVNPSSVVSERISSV
Description: During the incubation, the radioligands bind to the receptor. When equilibrium of binding is reached, the receptor bound radioactivity is separated from the non-bound radioactivity, and the receptor bound activity is counted. The interaction of the test compounds with the receptors is assessed in competition binding experiments. Various concentrations of the test compound are added to the incubation mixture containing the tissue preparation and the radioligand. Binding of the radioligand will be inhibited by the test compound in proportion to its binding affinity and its concentration.

T2 sequence (P14416 whole entry): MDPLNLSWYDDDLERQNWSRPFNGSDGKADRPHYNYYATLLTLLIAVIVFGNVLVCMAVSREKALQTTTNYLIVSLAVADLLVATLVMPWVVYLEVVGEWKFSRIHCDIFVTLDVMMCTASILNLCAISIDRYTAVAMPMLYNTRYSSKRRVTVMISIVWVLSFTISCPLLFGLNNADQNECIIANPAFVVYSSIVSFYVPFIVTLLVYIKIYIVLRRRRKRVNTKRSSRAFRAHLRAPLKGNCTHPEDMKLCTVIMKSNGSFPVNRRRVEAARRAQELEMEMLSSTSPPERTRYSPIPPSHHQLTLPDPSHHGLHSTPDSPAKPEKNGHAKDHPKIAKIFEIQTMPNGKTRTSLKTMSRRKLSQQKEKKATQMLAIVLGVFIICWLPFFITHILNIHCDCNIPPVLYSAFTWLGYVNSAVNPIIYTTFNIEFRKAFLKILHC
T1 sequence (P28223 whole entry): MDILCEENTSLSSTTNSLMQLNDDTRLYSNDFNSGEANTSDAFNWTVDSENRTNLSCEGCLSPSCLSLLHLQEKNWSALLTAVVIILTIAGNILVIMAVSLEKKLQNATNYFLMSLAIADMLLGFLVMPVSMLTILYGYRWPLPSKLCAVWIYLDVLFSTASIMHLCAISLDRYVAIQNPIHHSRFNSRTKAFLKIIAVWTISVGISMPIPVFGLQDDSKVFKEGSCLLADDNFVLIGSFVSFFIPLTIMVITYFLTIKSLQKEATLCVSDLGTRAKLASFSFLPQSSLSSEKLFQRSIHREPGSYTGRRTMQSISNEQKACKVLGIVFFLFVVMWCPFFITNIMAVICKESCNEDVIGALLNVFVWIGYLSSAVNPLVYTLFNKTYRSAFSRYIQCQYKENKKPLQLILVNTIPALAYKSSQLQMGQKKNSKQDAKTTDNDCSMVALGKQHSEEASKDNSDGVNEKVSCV

Row | IC50 ([1]; read-out: h-5HT2A (converted)) | IC50 [2] | IC50 ([3]; read-out: h-5HT2C (converted)) | Structure (SMILES) | IC50 ([3]; h-5HT2C) | IC50 ([1]; h-5HT2A)
1 | 39.8 nM | > 10000 nM |  | CN(C[C@H]1CC2=C(O1)c1cc(F)ccc1Cc1ccccc12)C1CC(=O)NC1=O (mixture of isomers) [Compound 124] |  | 
2 | 0.126 nM | 10 nM |  | OC1CCN(CC2CC3=C(O2)c2cc(F)ccc2Sc2ccccc23)C1 (stereo not shown) [Compound 34] |  | 
3 | 1 nM | 20 nM | 2 nM | OC1CCCN(CC2CC3=C(O2)c2cc(F)ccc2Cc2ccccc23)C1 (stereo not shown) [Compound 37] |  | 
4 | 0.316 nM | 2 nM | 1.26 nM | OCCC1CCN(CC2CC3=C(O2)c2cc(F)ccc2Cc2ccccc23)CC1 (stereo not shown) [Compound 38] |  | 
5 | 6.31 nM | 50.1 nM | 2.51 nM | COc1cc2c(cc1OC)CN(CC1CC3=C(O1)c1cc(F)ccc1Cc1ccccc13)CC2 (stereo not shown) [Compound 40] |  | 
6 | 5.01 nM | 10 nM | 12.6 nM | OCCN1CCN(CC2CC3=C(O2)c2cc(F)ccc2Cc2ccccc23)CC1 (stereo not shown) [Compound 41] |  | 
7 | 3.16 nM | 5.01 nM | 10 nM | OCCN1CCN(CC2CC3=C(O2)c2cc(F)ccc2Sc2ccccc23)CC1 (stereo not shown) [Compound 42] |  | 
8 | 79.4 nM | 794 nM | 100 nM | CS(=O)(=O)N1CCN(CC2CC3=C(O2)c2cc(F)ccc2Oc2ccccc23)CC1 (stereo not shown) [Compound 45] |  | 
9 | 3.98 nM | 200 nM | 7.94 nM | CC(=O)N1CCN(CC2CC3=C(O2)c2cc(F)ccc2Cc2ccccc23)CC1 (stereo not shown) [Compound 53] |  | 
10 | 31.6 nM |  | 100 nM | CC(=O)N1CCN(CC2CC3=C(O2)c2cc(F)ccc2Oc2ccccc23)CC1 (stereo not shown) [Compound 54] |  | 
11 | 3.98 nM | 316 nM | 10 nM | CCCC(=O)N1CCN(CC2CC3=C(O2)c2cc(F)ccc2Cc2ccccc23)CC1 (stereo not shown) [Compound 55] |  | 
12 | 100 nM | 1260 nM | 100 nM | CCCC(=O)N1CCN(CC2CC3=C(O2)c2cc(F)ccc2Oc2ccccc23)CC1 (stereo not shown) [Compound 56] |  | 
13 | 3.98 nM | 316 nM | 20 nM | O=C(C1CC1)N1CCN(CC2CC3=C(O2)c2cc(F)ccc2Cc2ccccc23)CC1 (stereo not shown) [Compound 57] |  | 
14 | 2 nM | 316 nM | 5.01 nM | COC(=O)CC(=O)N1CCN(CC2CC3=C(O2)c2cc(F)ccc2Cc2ccccc23)CC1 (stereo not shown) [Compound 59] |  | 
15 | 10 nM | 200 nM | 20 nM | CCOC(=O)N1CCN(CC2CC3=C(O2)c2cc(F)ccc2Cc2ccccc23)CC1 (stereo not shown) [Compound 61] |  | 
16 | 12.6 nM | 251 nM | 100 nM | COc1ccc(C(=O)N2CCN(CC3CC4=C(O3)c3cc(F)ccc3Oc3ccccc34)CC2)cc1 (stereo not shown) [Compound 74] |  | 
17 | 3.98 nM | 126 nM |  | CCCCNC(=O)N1CCN(CC2CC3=C(O2)c2cc(F)ccc2Cc2ccccc23)CC1 (stereo not shown) [Compound 77] |  | 
18 | 79.4 nM |  | 50.1 nM | CCCCNC(=O)N1CCN(CC2CC3=C(O2)c2cc(F)ccc2Oc2ccccc23)CC1 (stereo not shown) [Compound 78] |  | 
19 | 39.8 nM | 1580 nM |  | O=C(NC1CCCCC1)N1CCN(CC2CC3=C(O2)c2cc(F)ccc2Cc2ccccc23)CC1 (stereo not shown) [Compound 79] |  | 
20 | 39.8 nM | 1000 nM | 79.4 nM | O=C(NC1CCCCC1)N1CCN(CC2CC3=C(O2)c2cc(F)ccc2Oc2ccccc23)CC1 (stereo not shown) [Compound 80] |  | 
21 | 10 nM | 251 nM | 10 nM | O=C(Nc1ccccc1)N1CCN(CC2CC3=C(O2)c2cc(F)ccc2Cc2ccccc23)CC1 (stereo not shown) [Compound 83] |  | 
22 | 3.16 nM | 100 nM |  | O=C(Nc1ccc(F)cc1)N1CCN(CC2CC3=C(O2)c2cc(F)ccc2Cc2ccccc23)CC1 (stereo not shown) [Compound 85] |  | 

The next lines start with the molecule.

Row | Structure (SMILES) | IC50 ([1]; read-out: h-5HT2A (converted)) | IC50 [2] | IC50 ([3]; read-out: h-5HT2C (converted)) | IC50 ([3]; h-5HT2C) | IC50 ([1]; h-5HT2A)
23 | CNCC1CC2=C(O1)c1cc(F)ccc1Sc1ccccc12 (single isomer, unassigned) [Compound 13] | 3.16 nM | 200 nM | 3.98 nM |  | 
24 | CNCC1CC2=C(O1)c1cc(F)ccc1Sc1ccccc12 (single isomer, unassigned) [Compound 14] |  |  | 0.2 nM |  | 
25 | CN(C)CC1CC2=C(O1)c1ccccc1Cc1ccccc12 (single isomer, unassigned) [Compound 23] |  | 1580 nM | 15.8 nM |  | 
26 | CN(C)CC1CC2=C(O1)c1ccccc1Cc1ccccc12 (single isomer, unassigned) [Compound 24] |  | 158 nM | 1.26 nM |  | 
27 | NCC1CC2=C(O1)c1cc(F)ccc1Cc1ccccc12 (stereo not shown) [Compound 1] | 1.58 nM |  | 0.794 nM |  | 
28 | CNCC1CC2=C(O1)c1cc(Br)ccc1Cc1ccccc12 (stereo not shown) [Compound 5] | 0.794 nM | 31.6 nM | 0.794 nM |  | 
29 | CCCCc1ccc2c(c1)C1=C(CC(CNC)O1)c1ccccc1C2 (stereo not shown) [Compound 6] | 31.6 nM | 251 nM |  |  | 
30 | CNCC1CC2=C(O1)c1cc(F)ccc1C(C)c1ccccc12 (stereo not shown) [Compound 8] | 31.6 nM | 2000 nM | 10 nM |  | 
31 | CCNCC1CC2=C(O1)c1cc(F)ccc1Sc1ccccc12 (stereo not shown) [Compound 18] | 0.398 nM | 15.8 nM | 1.26 nM |  | 
32 | OCCNCC1CC2=C(O1)c1cc(F)ccc1Cc1ccccc12 (stereo not shown) [Compound 19] | 1.58 nM | 63.1 nM | 1 nM |  | 
33 | CN(C)CC1CC2=C(O1)c1ccccc1Cc1ccccc12 (stereo not shown) [Compound 22] | 3.98 nM |  | 3.98 nM |  | 
34 | CN(C)CC1CC2=C(O1)c1ccccc1Oc1ccccc12 (stereo not shown) [Compound 25] | 63.1 nM | 1260 nM | 20 nM |  | 
35 | CN(C)CC1CC2=C(O1)c1cc(F)ccc1Oc1ccccc12 (stereo not shown) [Compound 26] | 10 nM |  | 7.94 nM |  | 
36 | CN(C)CC1CC2=C(O1)c1cc(Br)ccc1Oc1ccccc12 (stereo not shown) [Compound 27] | 7.94 nM |  | 2.51 nM |  | 
37 | CN(C)CC1CC2=C(O1)c1cc(F)ccc1Sc1ccccc12 (stereo not shown) [Compound 28] | 0.398 nM | 12.6 nM |  |  | 
38 | CN(CCO)CC1CC2=C(O1)c1cc(F)ccc1Cc1ccccc12 (stereo not shown) [Compound 31] | 2.51 nM |  | 1.58 nM |  | 
39 | CN(CCO)CC1CC2=C(O1)c1cc(F)ccc1Oc1ccccc12 (stereo not shown) [Compound 32] | 15.8 nM |  | 25.1 nM |  | 
40 | OC1CCN(CC2CC3=C(O2)c2cc(F)ccc2Cc2ccccc23)C1 (stereo not shown) [Compound 33] | 0.794 nM | 39.8 nM | 0.794 nM |  | 
41 | O=S(=O)(Cc1ccccc1)N1CCN(CC2CC3=C(O2)c2cc(F)ccc2Cc2ccccc23)CC1 (stereo not shown) [Compound 51] | 79.4 nM | 100 nM | 200 nM |  | 
42 | O=S(=O)(Cc1ccccc1)N1CCN(CC2CC3=C(O2)c2cc(F)ccc2Oc2ccccc23)CC1 (stereo not shown) [Compound 52] | 100 nM | 158 nM | 200 nM |  | 
43 | CCOC(=O)N1CCN(CC2CC3=C(O2)c2cc(F)ccc2Oc2ccccc23)CC1 (stereo not shown) [Compound 62] | 79.4 nM | 631 nM | 200 nM |  | 
44 | CN(C)C(=O)N1CCN(CC2CC3=C(O2)c2cc(F)ccc2Cc2ccccc23)CC1 (stereo not shown) [Compound 75] | 50.1 nM | 794 nM | 316 nM |  | 
45 | CN(C)C(=O)N1CCN(CC2CC3=C(O2)c2cc(F)ccc2Oc2ccccc23)CC1 (stereo not shown) [Compound 76] | 50.1 nM | 251 nM | 158 nM |  | 
46 | CCOC(=O)CNC(=O)N1CCN(CC2CC3=C(O2)c2cc(F)ccc2Oc2ccccc23)CC1 (stereo not shown) [Compound 82] | 39.8 nM | 1580 nM | 158 nM |  | 
47 | CN(C[C@H]1CC2=C(O1)c1cc(F)ccc1Cc1ccccc12)C(=O)Oc1ccccc1 [Compound 111] |  |  |  | 3.98 nM | 200 nM
